# Assay results: patent US4169846A, “Cis-platinum (II) complex of trans-l-1,2-diaminocyclohexane” (priority 1976, dated 1979)
# Where two headings read alike, the source gives them in different places.
# Tests used:
# leukemia P 388 = assay: Anti-tumor activity on mice against leukemia P 388; format: in vivo, CDF1 mice; conditions: days 1 and 5
# Method: (§1) To test the anti-tumor activity of the compounds of the present invention, 100,000 cells/mouse of leukemia L 1210 and 1,000,000 cells/mouse of leukemia P 388 were transplanted by intraperitoneal injection to groups of CDF1 mice, respectively. One and 5 days after the transplantation, the test compound was administered by intraperitoneal injection to the mice.
# (§2) The anti-tumor activity of the test compound was evaluated by means of T/C %, i.e., 100 times the mean survival period of the groups injected with the test compound divided by the means survival period of the comparison groups which were not injected with the test compound. The value of higher than 120% for L 1210 and higher than 125% for P 388 means that the test compound has a good effect.
# [1] = test system: ascites-tumor Sarcoma 180A; format: in vivo, ddN mice; conditions: for Growth Rate T/C (%): daily from one to five days
# Method: To test the anti-tumor activity of the compounds of the present invention, cells of ascites-tumor Sarcoma 180A were transplanted by intraperitoneal injection to groups of ddN mice. From one to five days, the test compound was administered by intraperitoneal injection day after day. The ascites of the resulting mice was sampled to evaluate the anti-tumor activity of the test compound by means of the growth rate of the tumor, T/C % (groups with treatment/groups without treatment). In the table, the designations "-", "+", "++" and "+++" mean 100-66%, 65-41%, 40-11% and 10-0%, of the T/C %, respectively.
# male mice (ddN strain) = assay: Acute toxicity test (intraperitoneal); format: in vivo; conditions: i.p., suspension in 0.3% CMC
# Method: A suspension of the test substance in 0.3% CMC aqueous solution was intraperitoneally administered to the test mice in a dose amount of 0.5 ml per mouse.
# leukemia L 1210 = assay: Anti-tumor activity on mice against leukemia L 1210; format: in vivo, CDF1 mice; conditions: days 1 and 5
# Method: as §1, §2
Compound,"T/C % (leukemia P 388; P 388, 25 mg/kg i.p.) [%]","T/C % (leukemia P 388; P 388, 50 mg/kg i.p.) [%]","T/C % (leukemia P 388; P 388, 100 mg/kg i.p.) [%]",Evaluation ([1]; 3 mg/kg i.p.),Growth Rate T/C (%) ([1]; 3 mg/kg i.p.),Evaluation ([1]; 1 mg/kg i.p.),Growth Rate T/C (%) ([1]; 1 mg/kg i.p.),Evaluation ([1]; 10 mg/kg i.p.),Growth Rate T/C (%) ([1]; 10 mg/kg i.p.),also measured
"O=C(O)C(=O)O.[NH-][C@@H]1CCCC[C@H]1[NH-].[Pt+2] (relative stereo) [Compound No. 6, Cis-oxalato(trans-l-1,2-diaminocyclohexane)platinum (II)]",61,0,0,+++ (10-0%),9,–,–,–,–,"T/C % (leukemia P 388; P 388, 6.25 mg/kg i.p.): 188%"
"NC1CCCCC1N.[Cl-].[Cl-].[Pt+2] (stereo not drawn) [Compound No. 1, Cis-dichloro(cis-1,2-diaminocyclohexane)Platinum (II)]",–,–,–,+++ (10-0%),3,+ (65-41%),57,+++ (10-0%),0,"LD50 (male mice (ddN strain)): 11.3 mg/kg; T/C % (leukemia L 1210; L 1210, 6.25 mg/kg i.p.): 198%; T/C % (leukemia L 1210; L 1210, 12.5 mg/kg i.p.): 211%; T/C % (leukemia L 1210; L 1210, 25 mg/kg i.p.): 164%; T/C % (leukemia L 1210; L 1210, 100 mg/kg i.p.): 0%; T/C % (leukemia L 1210; L 1210, 200 mg/kg i.p.): 0%; T/C % (leukemia L 1210; L 1210, 400 mg/kg i.p.): 0%"
"NC1CCCCC1N.[Cl][Pt][Cl] (stereo not drawn) [Compound No. 2, Cis-dichloro(trans-d-1,2-diaminocyclohexane)platinum (II)]",–,–,–,+++ (10-0%),1,++ (40-11%),8,–,–,"LD50 (male mice (ddN strain)): 22.5 mg/kg; T/C % (leukemia L 1210; L 1210, 12.5 mg/kg i.p.): 291%; T/C % (leukemia L 1210; L 1210, 25 mg/kg i.p.): 110%; T/C % (leukemia L 1210; L 1210, 50 mg/kg i.p.): 71%; T/C % (leukemia L 1210; L 1210, 100 mg/kg i.p.): 71%; T/C % (leukemia L 1210; L 1210, 200 mg/kg i.p.): 0%"
"NC1CCCCC1N.[Cl-].[Cl-].[Pt+2] (stereo not drawn) [Compound No. 3, Cis-dichloro(trans-l-1,2-diaminocyclohexane)platinum (II)]",–,–,–,+++ (10-0%),2,++ (40-11%),18,–,–,"LD50 (male mice (ddN strain)): 14.1 mg/kg; T/C % (leukemia L 1210; L 1210, 6.25 mg/kg i.p.): 316%; T/C % (leukemia L 1210; L 1210, 12.5 mg/kg i.p.): 379%; T/C % (leukemia L 1210; L 1210, 25 mg/kg i.p.): 88%; T/C % (leukemia L 1210; L 1210, 50 mg/kg i.p.): 71%; T/C % (leukemia L 1210; L 1210, 100 mg/kg i.p.): 0%; T/C % (leukemia L 1210; L 1210, 200 mg/kg i.p.): 0%"
"NC1CCCCC1N.O=C1[O][Pt][O]C1=O (stereo not drawn) [Compound No. 4, Cis-oxalato(cis-1,2-diaminocyclohexane)platinum (II)]",200,0,0,+++ (10-0%),0,+++ (10-0%),0,+++ (10-0%),0,Growth Rate T/C (%) ([1]; 0.3 mg/kg i.p.): 83%
"NC1CCCCC1N.O=C1[O][Pt][O]C1=O (stereo not drawn) [Compound No. 5, Cis-oxalato(trans-d-1,2-diaminocyclohexane)platinum (II)]",–,–,–,+++ (10-0%),10,–,–,–,–,"T/C % (leukemia P 388; P 388, 10 mg/kg i.p.): 174%; T/C % (leukemia P 388; P 388, 20 mg/kg i.p.): 195%; T/C % (leukemia P 388; P 388, 40 mg/kg i.p.): 0%"
"NC1CCCCC1N.O=C([O-])CC(=O)[O-].[Pt+2] (stereo not drawn) [Compound No. 7, Cis-malonato(cis-1,2-diaminocyclohexane)platinum (II)]",142,155,–,–,–,–,–,+ (65-41%),61,"T/C % (leukemia P 388; P 388, 12.5 mg/kg i.p.): 126%; Evaluation ([1]; 30 mg/kg i.p.): +++ (10-0%); Growth Rate T/C (%) ([1]; 30 mg/kg i.p.): 0%; Evaluation ([1]; 100 mg/kg i.p.): +++ (10-0%); Growth Rate T/C (%) ([1]; 100 mg/kg i.p.): 0%"
"NC1CCCCC1N.O=C1CC(=O)[O][Pt][O]1 (stereo not drawn) [Compound No. 8, Cis-malonato(trans-d-1,2-diaminocyclohexane)platinum (II)]",138,155,–,–,–,–,–,+ (65-41%),47,"T/C % (leukemia P 388; P 388, 12.5 mg/kg i.p.): 121%; Evaluation ([1]; 30 mg/kg i.p.): +++ (10-0%); Growth Rate T/C (%) ([1]; 30 mg/kg i.p.): 1%; Evaluation ([1]; 100 mg/kg i.p.): +++ (10-0%); Growth Rate T/C (%) ([1]; 100 mg/kg i.p.): 0%"
"NC1CCCCC1N.O=C([O-])CC(=O)[O-].[Pt+2] (stereo not drawn) [Compound No. 9, Cis-malonato(trans-l-1,2-diaminocyclohexane)platinum (II)]",–,–,–,–,85,–,–,++ (40-11%),17,"T/C % (leukemia P 388; P 388, 75 mg/kg i.p.): 202%; T/C % (leukemia P 388; P 388, 150 mg/kg i.p.): 104%; Evaluation ([1]; 30 mg/kg i.p.): + ++; Growth Rate T/C (%) ([1]; 30 mg/kg i.p.): 1%; Evaluation ([1]; 100 mg/kg i.p.): +++ (10-0%); Growth Rate T/C (%) ([1]; 100 mg/kg i.p.): 4%"
"CC(C(=O)[O-])C(=O)[O-].NC1CCCCC1N.[Pt+2] [Compound No. 10, Cis-methylmalonato(cis-1,2-diaminocyclohexane)platinum (II)]",–,–,–,–,–,–,–,–,–,"T/C % (leukemia P 388; P 388, 20 mg/kg i.p.): 102%; T/C % (leukemia P 388; P 388, 40 mg/kg i.p.): 121%; T/C % (leukemia P 388; P 388, 80 mg/kg i.p.): 133%"
"CC1C(=O)[O][Pt][O]C1=O.NC1CCCCC1N [Compound No. 11, Cis-methylmalonato(trans-d-1,2-diaminocyclohexane)platinum(II)]",121,138,154,–,–,–,–,–,–,–
"CC(C(=O)[O-])C(=O)[O-].NC1CCCCC1N.[Pt+2] [Compound No. 12, Cis-methylmalonato(trans-l-1,2-diaminocyclohexane)platinum(II)]",115,122,141,–,–,–,–,–,–,–
"NC1CCCCC1N.[Cl][Pt][Cl] (stereo not drawn) [cis-dichloro (1,2-DAC) Pt(II), reference compound]",–,–,–,+++ (10-0%),3,++ (40-11%),19,–,–,Evaluation ([1]; 0.3 mg/kg i.p.): ++ (40-11%); Growth Rate T/C (%) ([1]; 0.3 mg/kg i.p.): 12%
"Cis-uracil(cis-1,2-diaminocyclohexane)platinum (II) [Compound No. 13]",–,–,163,–,–,–,–,–,–,"T/C % (leukemia P 388; P 388, 200 mg/kg i.p.): 71%; T/C % (leukemia P 388; P 388, 400 mg/kg i.p.): 0%"
"Cis-uracil(trans-d-1,2-diaminocyclohexane)platinum (II) [Compound No. 14]",–,140,142,–,–,–,–,–,–,"T/C % (leukemia P 388; P 388, 200 mg/kg i.p.): 178%"
"Cis-uracil(trans-l-1,2-diaminocyclohexane)platinum (II) [Compound No. 15]",–,155,181,–,–,–,–,–,–,"T/C % (leukemia P 388; P 388, 200 mg/kg i.p.): 178%"
